Assay results: patent US7241581B2, “Methods of identifying compounds that modulate IL-4 receptor-mediated IgE synthesis utilizing a c-MYC protein” (Rigel Pharmaceuticals, Inc., priority 2002, dated 2007)

Key:
[1] = tested on: IL-4 induced germline ε transcription; assay: A5T4 reporter line screening of single cell clones (+Dox vs -Dox, IL-4 stimulated, GFP by FACS); format: cell-based, human; conditions: geometric mean GFP fluorescence +IL-4/+Dox to +IL-4/-Dox; IL-4 60 U/mL, Dox 10 ng/ml; library clone
From the text: Peptide BR10A1 wt was identified by screening a retroviral library of random peptide 20-mers for the ability to inhibit IL-4 induced germline ε transcription using the HBEGF2a/diphtheria dual reporter phenotypic screening system described in WO 01/31232. To construct the random library, A5T4 reporter cells (described in more detail below) were infected with an infectious retroviral library of random peptide 20-mers (prepared as described in WO 97/27213; see also WO 01/34806 at page 39, line 36 through page 40, line 19). The retroviral vector used includes a gene encoding blue fluorescent protein (BFP) fused upstream of the region encoding the random peptide via a linker region encoding an α-helical peptide linker (expression fusion product is referred to as “BFP-peptide”). Expression of the BFP-peptide product is controlled by a promoter sensitive to the tetracycline-regulated transactivator such that expression of the BFP-peptide is regulated by tetracycline (Tet) or doxycycline (Dox). See U.S. patent application Ser. No. 10/096,339, entitled “Methods and Compositions for Screening for Altered Cellular Phenotypes,” filed on Mar. 8, 2002. […]

human c-Myc protein = target: T1, human c-Myc protein (Homo sapiens, UniProt P01106); assay: Yeast two hybrid (YTH) interaction assay, β-galactosidase; format: binding
T1 construct: expressed in transfected cells; prey cDNA library made from the A5T4 reporter line (human BJAB B-cells)
T1 sequence (P01106 whole entry): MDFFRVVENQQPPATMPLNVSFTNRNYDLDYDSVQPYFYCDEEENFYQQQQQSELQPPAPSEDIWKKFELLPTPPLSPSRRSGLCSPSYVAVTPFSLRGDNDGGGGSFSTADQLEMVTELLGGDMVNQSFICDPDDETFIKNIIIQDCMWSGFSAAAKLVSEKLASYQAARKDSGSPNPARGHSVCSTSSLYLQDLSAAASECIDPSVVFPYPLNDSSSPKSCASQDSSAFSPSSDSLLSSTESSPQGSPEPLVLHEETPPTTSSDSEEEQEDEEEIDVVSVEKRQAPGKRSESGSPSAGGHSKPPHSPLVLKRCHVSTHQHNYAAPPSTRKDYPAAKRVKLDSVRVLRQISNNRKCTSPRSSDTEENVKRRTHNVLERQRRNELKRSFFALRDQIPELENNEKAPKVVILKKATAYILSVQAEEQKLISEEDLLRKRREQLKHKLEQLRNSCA
Procedure: Potential binding partners for peptide BR10A1 wt were identified in a β-galactosidase yeast two-hybrid (YTH) assay using peptide BR10A1 wt as bait and a cDNA library constructed from the A5T4 reporter cell line as prey. Binding was assessed by β-galactosidase quantification using BetaFluor (Novagen) as a substrate. A negative interaction control (no cDNA fused downstream of the GAL4 activation domain sequence) was also run. A general outline of the YTH assay is illustrated in FIG. 5A. Following clustering, filtering to remove non-specific bait hits (e.g., GFP and BFP), singletons and clusters recognized by 10 or more cDNA baits (based upon historical YTH assays), and prioritization, 30 prey clones were identified as hits.
Potential targets identified in the YTH assay were reconfirmed as generally outlined in FIG. 6. The cDNA clones identified as hits in the YTH assay were purified and rescreened for interaction with the BR10A1 wt peptide in a YTH assay. The hit clones were also screened in a control assay for interaction with the BFP using a vector (pGBKT7) that contained only the BFP and not the BR10A1 peptide. At this stage, 25 putative target clones remained.
The interaction of BR10A1 wt peptide and its mutants with the clones identified as potential targets for the peptide BR10A1 wt was then quantified in a β-galactosidase YTH assay. The YTH assay was performed in the manner described above. A general outline of this YTH assay is illustrated in FIG. 5B. For each clone tested, an interaction profile was developed by comparing the β-galactosidase activity of each mutant to that of the wild type peptide as described above.
The interaction of selected IOF, ROF and LOF mutants with different polypeptides encoded by the putative target clones were quantified using the YTH assay described above. Based on the YTH assay, for each putative target, the mutants were categorized into the following four interaction categories: (1) reduction of interaction (ROI); (2) loss of interaction (LOI); (3) increase of interaction (IOI); and (4) interactionally neutral (N), by assessing the binding affinity ratio of the mutant peptide and the wild type peptide (β-gal activity of mutant/wild type) to the putative target. The selection criteria for categorizing the interactions is shown on FIG. 8.

binding to human c-Myc protein in yeast two hybrid interaction assay (human c-Myc protein): found to bind
Sequence: MQRRESCITRSVEEGWGLFYLGP (peptide encoded by random oligo-BR10A1wt) [wild-type peptide from random library, expressed in cells as BFP-peptide fusion]
Reporter Ratio [1]: 1.26
